# Experimental data reported in US10016382B2, “Method for decreasing skeletal muscle damage and/or oxidative stress in mammals” (LONZA INC., priority 2014, dated 2018).
# “And” between values parts separate entries of the source, which are not always exact repeats. Equal values may be shown once.
# Test system: Labrador Retrievers
# Assay: Heart rate and body temperature recovery following 15 mile run, Example 1
# Assay type: in vivo, dog
# Conditions: Ex.1, 250 mg/d; for Dog body temperature after run / Heartrate after run / Temperature before run / Heartrate before run: mean ± SEM; for Temperature before run / Heartrate before run: before 15 mile run
# Source text: Each test dog wore an Actical activity monitor from Philips Respironics on a collar for the short higher intensity runs and also wore an Actical activity monitor for the weekly longer endurance runs. The activity data was downloaded into spread sheets along with each dogs identity. Twenty four hours after each long run during the 13 wk running program each of the dogs were scored by kennel staff for soreness or any type of lameness The exercise program was decreased in a tapering program during wk 11 and 12 to allow the dogs to rest for the final long run completed on wk 13. Pre-run serum samples from each test dog was taken 24 hr before the last endurance run. The heart rate and basal body temperature was determined for each test dog prior to the last long endurance run. Each performance dog also wore the Actical activity monitor during the last endurance run. The dogs were put through a 15 mile run that included mud, water, tall grass, and swimming. The dogs were timed when they completed the course. The dogs were encouraged by kennel staff that rode along in a 4 wheel all terrain type vehicle during all of the endurance runs. […] Immediately following the 15 mile endurance run, each dog was placed in a kennel and evaluated for recovery time for body temperature (every 15 minutes for 2 hr) and heart rate (every 2 minutes for 14 minutes). Twenty four hours after test dogs ran the last 15 endurance run, post-run serum samples were taken to evaluate biomarkers for muscle damage and antioxidant status. Each test dog was also scanned with the GE Prodigy DEXA to determine body composition change that occurred during the course of the 13 wk study. The dogs were timed during the last 15 mile run at the end of the study. The body temperature and heart rate for each dog was determined just prior to the long 15 mile run. The heart rate measurements were determined manually and body temperature was determined by using a rectal thermometer. Each staff member was responsible for determining the time required to complete the run for one of the test dogs in each set. Each staff member was also responsible for determining the heart rate and body temperature of their specific assigned dog immediately upon their return after the run. The heart rate was determined every 2 minutes for a fourteen minute period following the last long run and the body temperature was determined every 15 minute for a two hour period after completing the long run. The heart rate and body temperature was determined both before and after to evaluate the fitness and time required after run to reach basal HR and body temperatures.
# [1] = 0 min after 15 mile run, both sexes
# [2] = 0 min after 15 mile run, females
compound,measurement,setting,value
C[N+](C)(C)C[C@H](O)CC(=O)[O-] [L-carnitine],Dog body temperature after run,[1],103.7 ± 0.3 n = 19 ° F.
same,Heartrate after run,[1],159 and 159 ± 4 n = 16
same,Dog body temperature after run,[2],103.6 ± 0.5 n = 9 ° F.
same,Heartrate after run,[2],155 ± 5 n = 8
same,Dog body temperature after run,"0 min after 15 mile run, males",103.8 ± 0.3 n = 10 ° F.
same,Heartrate after run,"0 min after 15 mile run, males",164 ± 6 n = 11
same,Heartrate after run,"2 min after 15 mile run, both sexes",146 ± 5 n = 16
same,Heartrate after run,"2 min after 15 mile run, females",139 ± 6 n = 8
same,Heartrate after run,"2 min after 15 mile run, males",149 ± 6 n = 11
same,Heartrate after run,"4 min after 15 mile run, both sexes",131 ± 5 n = 16
same,Heartrate after run,"4 min after 15 mile run, females",123 ± 6 n = 8
same,Heartrate after run,"4 min after 15 mile run, males",143 ± 8 n = 11
same,Heartrate after run,"6 min after 15 mile run, both sexes",123 ± 5 n = 16
same,Heartrate after run,"6 min after 15 mile run, females",120 ± 6 n = 8
same,Heartrate after run,"6 min after 15 mile run, males",131 ± 6 n = 11
same,Heartrate after run,"8 min after 15 mile run, both sexes",114 ± 4 n = 16
same,Heartrate after run,"8 min after 15 mile run, females",111 ± 6 n = 8
same,Heartrate after run,"8 min after 15 mile run, males",125 ± 6 n = 11
same,Heartrate after run,"10 min after 15 mile run, both sexes",113 ± 5 n = 16
same,Heartrate after run,"10 min after 15 mile run, females",109 ± 5 n = 8
same,Heartrate after run,"10 min after 15 mile run, males",120 ± 6 n = 11
same,Heartrate after run,"12 min after 15 mile run, both sexes",107 ± 4 n = 16
same,Heartrate after run,"12 min after 15 mile run, females",107 ± 7 n = 7
same,Heartrate after run,"12 min after 15 mile run, males",112 ± 5 n = 11
same,Heartrate after run,"14 min after 15 mile run, both sexes",101 ± 4 n = 16
same,Heartrate after run,"14 min after 15 mile run, females",103 ± 7 n = 7
same,Heartrate after run,"14 min after 15 mile run, males",102 ± 5 n = 10
same,Dog body temperature after run,"15 min after 15 mile run, both sexes",102.6 ± 0.2 n = 20 ° F.
same,Dog body temperature after run,"15 min after 15 mile run, females",102.6 ± 0.4 n = 9 ° F.
same,Dog body temperature after run,"15 min after 15 mile run, males",102.5 ± 0.2 n = 11 ° F.
same,Dog body temperature after run,"30 min after 15 mile run, both sexes",101.6 ± 0.1 n = 20 ° F.
same,Dog body temperature after run,"30 min after 15 mile run, females",101.3 ± 0.2 n = 9 ° F.
same,Dog body temperature after run,"30 min after 15 mile run, males",101.9 ± 0.1 n = 11 ° F.
same,Dog body temperature after run,"45 min after 15 mile run, both sexes",101.1 ± 0.1 n = 20 ° F.
same,Dog body temperature after run,"45 min after 15 mile run, females",101 ± 0.2 n = 9 ° F.
same,Dog body temperature after run,"45 min after 15 mile run, males",101.1 ± 0.1 n = 11 ° F.
same,Dog body temperature after run,"60 min after 15 mile run, both sexes",100.9 ± 0.2 n = 20 ° F.
same,Dog body temperature after run,"60 min after 15 mile run, females",100.8 ± 0.3 n = 9 ° F.
same,Dog body temperature after run,"60 min after 15 mile run, males",101 ± 0.2 n = 11 ° F.
same,Dog body temperature after run,"75 min after 15 mile run, both sexes",100.7 ± 0.2 n = 19 ° F.
same,Dog body temperature after run,"75 min after 15 mile run, females",100.7 ± 0.3 n = 8 ° F.
same,Dog body temperature after run,"75 min after 15 mile run, males",100.7 ± 0.2 n = 11 ° F.
same,Dog body temperature after run,"90 min after 15 mile run, both sexes",100.7 ± 0.2 n = 20 ° F.
same,Dog body temperature after run,"90 min after 15 mile run, females",100.6 ± 0.3 n = 9 ° F.
same,Dog body temperature after run,"90 min after 15 mile run, males",100.8 ± 0.2 n = 11 ° F.
same,Dog body temperature after run,"105 min after 15 mile run, both sexes",100.4 ± 0.2 n = 19 ° F.
same,Dog body temperature after run,"105 min after 15 mile run, females",100.2 ± 0.4 n = 8 ° F.
same,Dog body temperature after run,"105 min after 15 mile run, males",100.5 ± 0.2 n = 11 ° F.
same,Dog body temperature after run,"120 min after 15 mile run, both sexes",100.7 ± 0.2 n = 14 ° F.
same,Dog body temperature after run,"120 min after 15 mile run, females",100.7 ± 0.4 n = 4 ° F.
same,Dog body temperature after run,"120 min after 15 mile run, males",100.8 ± 0.2 n = 10 ° F.
same,Time to get heart rate back to basal levels,"after 15 mile run, both treatments required this time",approximately 14 minutes
same,Temperature before run,both sexes,101.3 ± 0.2 n = 20 ° F.
same,Heartrate before run,females,89 ± 3 n = 9
same,Temperature before run,females,101.0 ± 0.1 n = 9 ° F.
same,Heartrate before run,males,89 ± 3 n = 11
same,Temperature before run,males,101.7 ± 0.4 n = 11 ° F.
same,Heart rate and body temperature recovery vs control,following the final long run,not different
same,Time back to pre-run core temperature,"males, following 15 mile run, both groups",30 to 45 min
